Laboratory results from ChEMBL document CHEMBL3600384, “Highly potent artemisinin-derived dimers and trimers: Synthesis and evaluation of their antimalarial, antileukemia and antiviral activities” (Bioorg Med Chem, 2015).
The source made the active and inactive calls. No cut-off for these calls is given here.

Tests used:
Plasmodium falciparum [1] = experiment: Antimalarial activity against Plasmodium falciparum 3D7 infected in human erythrocytes assessed as parasite growth inhibition after 72 hrs by SYBR Green I assay; assay type: functional, organism-based; settings: 3D7, 72 h
CCRF-CEM [2] = experiment: Cytotoxicity against human CCRF-CEM cells assessed as cell viability after 72 hrs by resazurin assay; assay type: functional, cell-based
ADR5000 = experiment: Cytotoxicity against human CEM/ADR5000 cells assessed as cell viability at 400 uM after 72 hrs by resazurin assay; assay type: functional, cell-based
Human betaherpesvirus 5 = experiment: Antiviral activity against Human cytomegalovirus AD169 expressing GFP infected in HFF assessed as inhibition of viral replication after 7 days; assay type: functional, organism-based
CCRF-CEM [3] = experiment: Resistance index, ratio of IC50 for human CEM/ADR5000 cells to IC50 for human CCRF-CEM cells; assay type: functional
[4] = Cytotoxicity against human CEM/ADR5000 cells assessed as cell viability after 72 hrs by resazurin assay; assay type: functional, cell-based; settings: ADR5000, 72 h
[5] = Stability of the compound up to 56 degC; assay type: physicochemical
[6] = Potency index, ratio of doxorubicin IC50 to compound IC50 for human CEM/ADR5000 cells; assay type: functional
[7] = Stability of the compound in freezing/thawing condition; assay type: physicochemical
HFF [8] = experiment: Cytotoxicity against HFF up to 10 uM by light microscopic analysis; assay type: cell-based; settings: human
HFF [9] = experiment: Cytotoxicity against HFF up to 10 uM by fluorescence microscopic analysis; assay type: cell-based; settings: human
Plasmodium falciparum [10] = experiment: Antimalarial activity against Plasmodium falciparum NF54 infected in human erythrocytes after 48 hrs by [3H]hypoxanthine incorporation assay; assay type: functional, organism-based
[11] = Human betaherpesvirus 5, AD169, 168 h, read-out: IC50

| Structure (SMILES) | IC50 (Plasmodium falciparum [1]) | IC50 (CCRF-CEM [2]) | IC50 (Human betaherpesvirus 5; [11]) | Ratio IC50 (CCRF-CEM [3]) | IC50 [4] | further results |
| --- | --- | --- | --- | --- | --- | --- |
| C[C@H]1[C@@H](CCCO)O[C@@H]2O[C@@]3(C)CC[C@H]4[C@H](C)CC[C@@H]1[C@@]24OO3 | 11.6 nM | 174000 nM | – | – | – | Activity (ADR5000): inactive |
| C[C@@H]1CC[C@H]2[C@@H](C)C(=O)O[C@@H]3O[C@@]4(C)CC[C@@H]1[C@]32OO4 [ARTEMISININ] | – | – | > 10000 nM | 0.73 | – | – |
| C[C@H]1[C@H](OC(=O)CCC(=O)O)O[C@@H]2O[C@@]3(C)CC[C@H]4[C@H](C)CC[C@@H]1[C@@]24OO3 [ARTESUNATE] | 9 nM | 70 nM | 3800 nM | 2.71 | 190 nM | – |
| C[C@H]1[C@H](OC(=O)CCC(=O)OCC(C[C@H]2O[C@@H]3O[C@@]4(C)CC[C@H]5[C@H](C)CC[C@@H]([C@H]2C)[C@@]35OO4)C[C@H]2O[C@@H]3O[C@@]4(C)CC[C@H]5[C@H](C)CC[C@@H]([C@H]2C)[C@@]35OO4)O[C@@H]2O[C@@]3(C)CC[C@H]4[C@H](C)CC[C@@H]1[C@@]24OO3 | 12.8 nM | 2 nM | 40 nM | 100 | 200 nM | Stability [5]: Stable; Ratio IC50 [6]: 3; Stability [7]: Stable; Activity (HFF [8]): Non-toxic; Activity (HFF [9]): Non-toxic |
| C[C@H]1[C@@H](CCCOC(=O)C[C@H]2O[C@@H]3O[C@@]4(C)CC[C@H]5[C@H](C)CC[C@@H]([C@H]2C)[C@@]35OO4)O[C@@H]2O[C@@]3(C)CC[C@H]4[C@H](C)CC[C@@H]1[C@@]24OO3 | 2.6 nM | 90 nM | 310 nM | 2.22 | 200 nM | Ratio IC50 [6]: 3 |
| C[C@H]1[C@H](OC(=O)CCC(=O)NCC(O)CNC(=O)CCC(=O)O[C@@H]2O[C@@H]3O[C@@]4(C)CC[C@H]5[C@H](C)CC[C@@H]([C@H]2C)[C@@]35OO4)O[C@@H]2O[C@@]3(C)CC[C@H]4[C@H](C)CC[C@@H]1[C@@]24OO3 (stereo not given in full) | – | – | 2070 nM | – | – | – |
| C[C@H]1[C@H](OC(=O)CCC(=O)NCCCCCCCCNC(=O)CCC(=O)O[C@@H]2O[C@@H]3O[C@@]4(C)CC[C@H]5[C@H](C)CC[C@@H]([C@H]2C)[C@@]35OO4)O[C@@H]2O[C@@]3(C)CC[C@H]4[C@H](C)CC[C@@H]1[C@@]24OO3 | – | – | > 10000 nM | – | – | – |
| COc1cccc2c1C(=O)c1c(O)c3c(c(O)c1C2=O)C[C@@](O)(C(=O)CO)C[C@@H]3O[C@H]1C[C@H](N)[C@H](O)[C@H](C)O1 [DOXORUBICIN] | – | 3 nM | – | 536.67 | 1610 nM | – |
| C[C@H]1[C@@H](O)O[C@@H]2O[C@@]3(C)CC[C@H]4[C@H](C)CC[C@@H]1[C@@]24OO3 [ARTENIMOL] | 2.5 nM | 90 nM | > 10000 nM | 3 | 270 nM | – |
| C[C@H]1[C@@H](CC(CO)C[C@H]2O[C@@H]3O[C@@]4(C)CC[C@H]5[C@H](C)CC[C@@H]([C@H]2C)[C@@]35OO4)O[C@@H]2O[C@@]3(C)CC[C@H]4[C@H](C)CC[C@@H]1[C@@]24OO3 (stereo not given in full) | 1.1 nM | 20 nM | – | 2.5 | 50 nM | IC50 (Plasmodium falciparum [10]): 0.87 nM |
| C[C@H]1[C@H](OC(=O)CCC(=O)O[C@@H]2O[C@@H]3O[C@@]4(C)CC[C@H]5[C@H](C)CC[C@@H]([C@H]2C)[C@@]35OO4)O[C@@H]2O[C@@]3(C)CC[C@H]4[C@H](C)CC[C@@H]1[C@@]24OO3 | 2.6 nM | 2750 nM | 1040 nM | 1.01 | 2790 nM | – |
| Nc1nc2c(ncn2COC(CO)CO)c(=O)[nH]1 [GANCICLOVIR] | – | – | 2600 nM | – | – | – |
| C[C@H]1[C@@H](OCC(C[C@H]2O[C@@H]3O[C@@]4(C)CC[C@H]5[C@H](C)CC[C@@H]([C@H]2C)[C@@]35OO4)C[C@H]2O[C@@H]3O[C@@]4(C)CC[C@H]5[C@H](C)CC[C@@H]([C@H]2C)[C@@]35OO4)O[C@@H]2O[C@@]3(C)CC[C@H]4[C@H](C)CC[C@@H]1[C@@]24OO3 | 12.8 nM | 2 nM | – | 245 | 490 nM | Ratio IC50 [6]: 3; Activity (HFF [8]): Non-toxic; IC50 (Human betaherpesvirus 5): ND(toxic); Activity (HFF [9]): Non-toxic |
